The target in assay [1] is T1, AMAN-2 (Golgi α-mannosidase) (Caenorhabditis elegans, UniProt Q2PJ74).
T1 sequence (Q2PJ74 27-1145): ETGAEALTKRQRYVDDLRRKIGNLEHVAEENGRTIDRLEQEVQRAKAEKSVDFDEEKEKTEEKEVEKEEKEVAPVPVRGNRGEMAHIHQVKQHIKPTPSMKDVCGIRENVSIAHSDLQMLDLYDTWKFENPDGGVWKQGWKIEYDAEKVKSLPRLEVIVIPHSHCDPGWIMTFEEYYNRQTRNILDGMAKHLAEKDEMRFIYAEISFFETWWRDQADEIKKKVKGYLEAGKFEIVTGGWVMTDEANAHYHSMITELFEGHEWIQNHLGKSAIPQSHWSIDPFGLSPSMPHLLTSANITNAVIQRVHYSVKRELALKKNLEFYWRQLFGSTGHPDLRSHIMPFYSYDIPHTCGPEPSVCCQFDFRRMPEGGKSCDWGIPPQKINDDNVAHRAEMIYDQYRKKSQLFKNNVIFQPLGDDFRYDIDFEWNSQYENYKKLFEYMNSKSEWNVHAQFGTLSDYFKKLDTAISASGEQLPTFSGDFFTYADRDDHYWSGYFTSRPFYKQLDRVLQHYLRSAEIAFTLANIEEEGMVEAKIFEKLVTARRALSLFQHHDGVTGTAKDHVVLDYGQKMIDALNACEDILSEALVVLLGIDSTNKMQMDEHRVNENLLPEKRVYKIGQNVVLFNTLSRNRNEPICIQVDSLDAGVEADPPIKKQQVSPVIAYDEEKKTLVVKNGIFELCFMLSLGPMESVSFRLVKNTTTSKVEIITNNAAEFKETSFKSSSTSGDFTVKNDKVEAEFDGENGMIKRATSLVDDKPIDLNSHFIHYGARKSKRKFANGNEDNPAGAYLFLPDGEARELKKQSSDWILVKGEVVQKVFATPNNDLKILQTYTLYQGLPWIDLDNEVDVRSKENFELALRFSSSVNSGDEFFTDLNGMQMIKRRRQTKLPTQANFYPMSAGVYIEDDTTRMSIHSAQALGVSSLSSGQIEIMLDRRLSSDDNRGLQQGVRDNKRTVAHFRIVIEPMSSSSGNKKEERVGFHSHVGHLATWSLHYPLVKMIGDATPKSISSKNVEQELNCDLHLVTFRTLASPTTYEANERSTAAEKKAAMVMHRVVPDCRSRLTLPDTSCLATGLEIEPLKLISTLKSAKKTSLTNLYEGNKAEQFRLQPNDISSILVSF
The assay is described as follows: α-mannosidase inhibition assay with pNP-Man, AMAN-2. Conditions: for SI^b = IC50(JBMan)/IC50(AMAN-2): selectivity index. Type of assay: biochemical.

Assay [2] addresses T2, GMIIb (Golgi α-mannosidase) (Drosophila melanogaster, UniProt Q9VF33).
T2 sequence (Q9VF33 31-1249): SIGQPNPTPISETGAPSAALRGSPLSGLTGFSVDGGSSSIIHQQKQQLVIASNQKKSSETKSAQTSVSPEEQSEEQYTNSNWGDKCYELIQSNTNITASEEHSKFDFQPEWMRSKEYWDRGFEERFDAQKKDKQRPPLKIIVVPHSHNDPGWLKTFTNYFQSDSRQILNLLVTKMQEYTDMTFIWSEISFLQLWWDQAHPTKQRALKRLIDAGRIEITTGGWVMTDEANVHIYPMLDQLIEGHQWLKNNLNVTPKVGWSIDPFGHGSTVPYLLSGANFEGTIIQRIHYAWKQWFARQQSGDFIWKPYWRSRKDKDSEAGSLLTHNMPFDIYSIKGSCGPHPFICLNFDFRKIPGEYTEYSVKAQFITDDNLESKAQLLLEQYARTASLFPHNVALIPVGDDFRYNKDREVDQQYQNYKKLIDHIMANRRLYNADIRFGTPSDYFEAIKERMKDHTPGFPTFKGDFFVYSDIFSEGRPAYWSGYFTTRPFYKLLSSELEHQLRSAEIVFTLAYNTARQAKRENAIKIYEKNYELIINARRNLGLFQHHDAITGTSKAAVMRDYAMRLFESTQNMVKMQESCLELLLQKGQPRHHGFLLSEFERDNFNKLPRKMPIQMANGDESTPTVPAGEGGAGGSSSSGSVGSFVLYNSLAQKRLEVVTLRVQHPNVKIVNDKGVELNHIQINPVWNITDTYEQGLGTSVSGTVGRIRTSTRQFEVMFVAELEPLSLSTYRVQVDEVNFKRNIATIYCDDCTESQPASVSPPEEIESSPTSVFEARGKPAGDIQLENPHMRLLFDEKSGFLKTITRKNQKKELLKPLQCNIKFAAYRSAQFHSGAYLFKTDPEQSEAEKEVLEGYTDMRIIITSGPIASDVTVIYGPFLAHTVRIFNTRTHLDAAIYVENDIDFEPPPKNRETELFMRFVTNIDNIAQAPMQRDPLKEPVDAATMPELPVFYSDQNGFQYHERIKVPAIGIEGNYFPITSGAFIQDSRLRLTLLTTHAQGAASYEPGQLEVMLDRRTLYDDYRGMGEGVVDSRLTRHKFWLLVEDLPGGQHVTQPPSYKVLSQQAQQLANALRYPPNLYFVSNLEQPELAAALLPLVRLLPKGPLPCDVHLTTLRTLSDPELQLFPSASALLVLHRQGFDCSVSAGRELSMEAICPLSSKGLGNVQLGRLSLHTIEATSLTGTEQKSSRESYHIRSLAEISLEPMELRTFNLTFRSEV
The assay is described as follows: α-mannosidase inhibition assay with pNP-Man, GMIIb. Conditions: for SI^a = IC50(LManII)/IC50(GMIIb): selectivity index. The format is biochemical.

The mark [3] stands for this setting: read-out: IC50 AMAN-2, 2 mM pNP-Man, pH 6.0.
Where [4] appears, read: read-out: IC50 GMIIb, 2 mM pNP-Man, pH 6.0.
The mark [5] stands for this setting: read-out: Ki AMAN-2, Dixon plots, pNP-Man 0.5-4 mM, pH 6.0.
The mark [6] stands for this setting: read-out: Ki GMIIb, Dixon plots, pNP-Man 0.5-4 mM, pH 6.0.

Molecules are shown by their SMILES. Where two headings read alike, the source gives them in different places.

For orientation: IC50 means the point on the concentration scale where inhibition reaches its midpoint. In the case of `Cl.N=C(N)NCCCCCCCCCCN1C[C@@H](O)[C@@H](O)[C@H]1CO` [Compound 25, 1,4-Dideoxy-N-(10-guanidinodecyl)-1,4-imino-d-lyxitol hydrochloride], in assay [1], inhibition was half-maximal at 2.7 ± 0.1 µM (IC50) and the “SI^b = IC50(JBMan)/IC50(AMAN-2)” value came out at 3. In assay [2], the IC50 was determined as 450 ± 100 nM and the “SI^a = IC50(LManII)/IC50(GMIIb)” value turned out to be 18.
Turning to `OC[C@@H]1[C@H](O)[C@H](O)CN1CC1CCOCC1` [Compound 20], the 50% inhibitory concentration (IC50) in assay [1] (setting [3]) was 84.3 ± 0.1 µM; in assay [2] (setting [4]) it was 15500 ± 500 nM. Also, in assay [1], the “SI^b = IC50(JBMan)/IC50(AMAN-2)” value is recorded as 30. The “SI^a = IC50(LManII)/IC50(GMIIb)” value in assay [2] is 63.
Turning to `OC[C@@H]1[C@H](O)[C@H](O)CN1Cc1ccccc1` [Compound 4, N-Benzyl-1,4-dideoxy-1,4-imino-d-lyxitol], in assay [1], the IC50 was found to be 8.7 ± 0.1 µM and the “SI^b = IC50(JBMan)/IC50(AMAN-2)” value is 124. In assay [2], the IC50 came out at 11000 ± 1300 nM and the “SI^a = IC50(LManII)/IC50(GMIIb)” value is on record as 61.
For the molecule `OCC1C(O)C(O)CN1Cc1ccc(I)cc1` (stereo not drawn) [Compound 16, 1,4-Dideoxy-1,4-imino-N-4-iodobenzyl-d-lyxitol], the IC50 in assay [1] (setting [3]) was 3.5 ± 0.1 µM; in assay [2] (setting [4]) it was 4400 ± 200 nM. Moreover, the “SI^b = IC50(JBMan)/IC50(AMAN-2)” value in assay [1] is 269. Moreover, the “SI^a = IC50(LManII)/IC50(GMIIb)” value in assay [2] is listed as 105.
What is called Ki is the equilibrium dissociation constant of an inhibitor or competing ligand from its target. For the molecule `Cl.N=C(N)NCc1ccc(CN2C[C@@H](O)[C@@H](O)[C@H]2CO)cc1` [Compound 9, 1,4-Dideoxy-N-4-guanidinomethylbenzyl-1,4-imino-d-lyxitol hydrochloride], the half-inhibitory concentration (IC50) in assay [1] (setting [3]) worked out at 12.5 ± 0.1 µM; in assay [2] (setting [4]), 2400 ± 100 nM. The values for the inhibition constant (Ki) in assay [1] (setting [5]) and in assay [2] (setting [6]) were 10300 nM and 830 nM, respectively. Besides, the “SI^b = IC50(JBMan)/IC50(AMAN-2)” value in assay [1] turned out to be 9. Also, in assay [2], the “SI^a = IC50(LManII)/IC50(GMIIb)” value is recorded as 142.
On to `OC[C@@H]1[C@H](O)[C@H](O)CN1CC1CCCCC1` [Compound 19, N-Cyclohexylmethyl-1,4-dideoxy-1,4-imino-d-lyxitol], for which, in assay [1], the IC50 came out at 17.3 ± 0.1 µM and the “SI^b = IC50(JBMan)/IC50(AMAN-2)” value is 75. For the same molecule, in assay [2], it took 3500 ± 300 nM to reach half-maximal inhibition (IC50) and the “SI^a = IC50(LManII)/IC50(GMIIb)” value came out at 54.
Regarding `OCC1C(O)C(O)CN1CCc1cccc2ccccc12` (stereo not drawn) [Compound 18, 1,4-Dideoxy-1,4-imino-N-(2-(naphthalen-1-yl)ethyl)-d-lyxitol], the results for the IC50 in assay [1] (setting [3]) and in assay [2] (setting [4]) were 0.21 ± 0.1 µM and 450 ± 80 nM, respectively. Besides, the figures for the Ki in assay [1] (setting [5]), in assay [2] (setting [6]) and in assay [2] (read-out: Ki(GMIIb)) were 150 nM, 160 nM and 150 nM, respectively. The “SI^b = IC50(JBMan)/IC50(AMAN-2)” value in assay [1] stood at 86. Besides, the “SI^a = IC50(LManII)/IC50(GMIIb)” value in assay [2] is listed as 27.
For `CCCCCCCCCCCCN1C[C@@H](O)[C@@H](O)[C@H]1CO` [Compound 21, 1,4-Dideoxy-N-dodecyl-1,4-imino-d-lyxitol], in assay [1], half-maximal inhibition (IC50) required 2.3 ± 0.1 µM and the “SI^b = IC50(JBMan)/IC50(AMAN-2)” value is on record as 9. In assay [2], the IC50 stood at 400 ± 50 nM and the “SI^a = IC50(LManII)/IC50(GMIIb)” value was 30.
As for `Cl.N=C(N)CCCCCCCCCN1C[C@@H](O)[C@@H](O)[C@H]1CO` [Compound 26, N-(9-amidinononyl)-1,4-dideoxy-1,4-imino-d-lyxitol hydrochloride], in assay [1], it took 1.4 ± 0.1 µM to reach half-maximal inhibition (IC50), the Ki is 780 nM and the “SI^b = IC50(JBMan)/IC50(AMAN-2)” value was 3. In addition, in assay [2], the 50% inhibitory concentration (IC50) was found to be 190 ± 20 nM, the inhibitory constant (Ki) stood at 40 nM and the “SI^a = IC50(LManII)/IC50(GMIIb)” value is 35.
Regarding `OC[C@@H]1[C@H](O)[C@H](O)CN1Cc1ccc2ccccc2c1` [Compound 17, 1,4-Dideoxy-1,4-imino-N-(naphthalen-2-ylmethyl)-d-lyxitol], the IC50 came to 2.4 ± 0.1 µM in assay [1] (setting [3]); 7.6 µM in assay [1] (read-out: IC50 AMAN-2, 2 mM pNP-Man, pH 6.0, listed as N-2-naphtylmethyl); 7600 ± 1100 nM in assay [2] (setting [4]); 2400 nM in assay [2] (read-out: IC50 GMIIb, 2 mM pNP-Man, pH 6.0, listed as N-2-naphtylmethyl). Also, the “SI^b = IC50(JBMan)/IC50(AMAN-2)” value in assay [1] was 812. Moreover, the “SI^a = IC50(LManII)/IC50(GMIIb)” value in assay [2] turned out to be 111.

The record behind these values is publication PMC7614232 (Organic & biomolecular chemistry, 2022).
